Reference: US20250230193A1, “CYCLIC COMPOUND HAVING SELECTIVE KRAS INHIBITORY EFFECT ON HRAS AND NRAS” (CHUGAI SEIYAKU KABUSHIKI KAISHA, priority 2022, published 2025)
Where a SMILES comes first, the peptide text is derived from it. Bridges are numbered along the chain shown (N, C = ends). [ ]: non-standard residue; d: D form. The star is where a group is joined. hPhe(3,5-F2-4-CF3) = N[C@@H](CCc1cc(F)c(C(F)(F)F)c(F)c1)C(=O)O; hPhe(3-Cl-4-CF3) = N[C@@H](CCc1ccc(C(F)(F)F)c(Cl)c1)C(=O)O; NPrPhe(4-CF3) = CCCN[C@@H](Cc1ccc(C(F)(F)F)cc1)C(=O)O; NMeAbu(4,4,4-F3) = CN[C@@H](CC(F)(F)F)C(=O)O; NMeGly(cPent) = CN[C@H](C(=O)O)C1CCCC1; Pro(4,4-F2) = O=C(O)[C@@H]1CC(F)(F)CN1; NMeD = CN[C@@H](CC(=O)O)C(=O)O; NMeL = CN[C@@H](CC(C)C)C(=O)O; NMeNva = CCC[C@H](NC)C(=O)O; Morpholide = C1CN(*)CCO1; NMeA = CN[C@@H](C)C(=O)O; Ac5c = NC1(C(=O)O)CCCC1; Aze = O=C(O)[C@@H]1CCN1; Sar = CNCC(=O)O

Key:
[1] = biological target: GDP-bound HRAS wild-type protein (Homo sapiens, UniProt P01112); assay: Binding to HRAS by surface plasmon resonance (SPR), Single Cycle Kinetics; details: SPR
Sequence of GDP-bound HRAS wild-type protein (P01112 whole entry): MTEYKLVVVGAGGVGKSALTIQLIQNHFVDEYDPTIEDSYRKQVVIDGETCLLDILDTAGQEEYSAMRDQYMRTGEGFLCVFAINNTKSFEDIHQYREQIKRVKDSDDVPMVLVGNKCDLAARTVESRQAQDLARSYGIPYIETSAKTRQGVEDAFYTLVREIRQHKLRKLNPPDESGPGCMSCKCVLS

[2] = biological target: GDP-bound NRAS wild-type protein (Homo sapiens, UniProt P01111); assay: Binding to NRAS by surface plasmon resonance (SPR), Single Cycle Kinetics; details: SPR
Sequence of GDP-bound NRAS wild-type protein (P01111 whole entry): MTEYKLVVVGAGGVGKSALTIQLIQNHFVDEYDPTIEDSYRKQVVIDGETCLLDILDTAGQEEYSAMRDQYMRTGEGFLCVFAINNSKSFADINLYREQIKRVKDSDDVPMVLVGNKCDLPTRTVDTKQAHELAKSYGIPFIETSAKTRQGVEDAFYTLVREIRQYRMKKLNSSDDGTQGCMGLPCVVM

[3] = KD ratio, GDP-bound HRAS wild-type vs GDP-bound KRAS wild-type
[4] = KD ratio, GDP-bound NRAS wild-type vs GDP-bound KRAS wild-type
[5] = GDP-bound HRAS wild-type vs GDP-bound KRAS wild-type
[6] = GDP-bound NRAS wild-type vs GDP-bound KRAS wild-type

## CCO[C@@H]1C[C@H]2C(=O)N[C@]3(C)CCCCCC[C@@H](C(=O)N[C@@H]([C@@H](C)CC)C(=O)N(C)CC(=O)N(C)[C@H]4CCCCN(C4=O)[C@@H](Cc4ccc(C(F)(F)F)cc4)C(=O)N(C)CC(=O)N[C@@H](CCc4cc(F)c(C(F)(F)F)c(F)c4)C(=O)N2C1)N(C)C(=O)C[C@@H](C(=O)N1CCOCC1)N(C)C(=O)[C@H](C1CCCC1)N(C)C3=O [PP0992]
[1]; [3]
  HRAS/KRAS (ratio of KD value with respect to HRAS to KD value with respect to KRAS): B (a compound having 3 or more and less than 10 is denoted as B)
[2]; [4]
  NRAS/KRAS (ratio of KD value with respect to NRAS to KD value with respect to KRAS): B (a compound having 3 or more and less than 10 is denoted as B)

## CCO[C@@H]1C[C@H]2C(=O)NC3(CC(C)(C)C3)C(=O)N(C)[C@@H](C3CCCC3)C(=O)N(C)[C@H](C(=O)N(C)C)CC(=O)N(C)[C@@H](COC)C(=O)N[C@@H]([C@@H](C)CC)C(=O)N(C)CC(=O)N(C)[C@H]3C/C=C\CCN(C3=O)[C@@H](Cc3ccc(C)cc3)C(=O)N(C)CC(=O)N[C@@H](CCc3ccc(C(F)(F)F)c(Cl)c3)C(=O)N2C1 [PP2389]
[1]; [5]
  HRAS/KRAS (ratio of KD value with respect to HRAS to KD value with respect to KRAS): B (a compound having 3 or more and less than 10 is denoted as B)
[2]; [6]
  NRAS/KRAS (ratio of KD value with respect to NRAS to KD value with respect to KRAS): A (a compound having 10 or more and less than 20 is denoted as A)

## CCO[C@@H]1C[C@H]2C(=O)NC3(CCC3)C(=O)N(C)[C@@H](C3CCCC3)C(=O)N(C)[C@H](C(=O)N3CCOCC3)CC(=O)N(C)[C@@H](Cc3ccccc3C#N)C(=O)N[C@@H]([C@@H](C)CC)C(=O)N(C)CC(=O)N(C)[C@H]3CCCCCN(C3=O)[C@@H](Cc3ccc(C(F)(F)F)cc3)C(=O)N(C)CC(=O)N[C@@H](CCc3cc(F)c(C(F)(F)F)c(F)c3)C(=O)N2C1 [PP1165]
[1]; [3]
  HRAS/KRAS (ratio of KD value with respect to HRAS to KD value with respect to KRAS): B (a compound having 3 or more and less than 10 is denoted as B)
[2]; [4]
  NRAS/KRAS (ratio of KD value with respect to NRAS to KD value with respect to KRAS): A (a compound having 10 or more and less than 20 is denoted as A)

## CCO[C@@H]1C[C@H]2C(=O)NC3(CC(C)(C)C3)C(=O)N(C)[C@@H](C3CCCC3)C(=O)N(C)[C@H](C(=O)N(CC)CC)CC(=O)N(C)[C@@H](CC)C(=O)N[C@@H]([C@@H](C)CC)C(=O)N(C)CC(=O)N(C)[C@H]3C/C=C\CCN(C3=O)[C@@H](Cc3ccc(C)cc3)C(=O)N(C)CC(=O)N[C@@H](CCc3ccc(C(F)(F)F)c(Cl)c3)C(=O)N2C1 [PP1883]
[1]; [3]
  HRAS/KRAS (ratio of KD value for HRAS to KD value for KRAS): A (a compound having 10 or more and less than 20 is denoted as A)
[2]; [4]
  NRAS/KRAS (ratio of KD value for NRAS to KD value for KRAS): A (a compound having 10 or more and less than 20 is denoted as A)

## CC[C@H](C)[C@@H]1NC(=O)[C@H](CC(C)C)N(C)C(=O)C[C@@H](C(=O)N2CCOCC2)N(C)C(=O)[C@H](C2CCCC2)N(C)C(=O)C2(CCCC2)NC(=O)[C@@H]2CCCN2C(=O)[C@H](CCc2cc(F)c(C(F)(F)F)c(F)c2)NC(=O)CN(C)C(=O)[C@H](Cc2ccc(C(F)(F)F)cc2)N2CCCC[C@@H](C2=O)N(C)C(=O)[C@H](C)N(C)C1=O [PP0544]
[1]; KD ratio HRAS/KRAS
  HRAS/KRAS (ratio of KD value with respect to GDP-bound HRAS wild-type protein to KD value with respect to KRAS): B (a compound having 3 or more and less than 10 is denoted as B)
[2]; KD ratio NRAS/KRAS
  NRAS/KRAS (ratio of KD value with respect to GDP-bound NRAS wild-type protein to KD value with respect to KRAS): B (a compound having 3 or more and less than 10 is denoted as B)

## CCCN1C(=O)CN(C)C(=O)CN(C)C(=O)[C@H]([C@@H](C)CC)NC(=O)[C@H](CC(C)C)N(C)C(=O)C[C@@H](C(=O)N2CCOCC2)N(C)C(=O)[C@H](CC(F)(F)F)N(C)C(=O)C2(CCCC2)NC(=O)[C@@H]2CCCN2C(=O)[C@H](CCc2cc(F)c(C(F)(F)F)c(F)c2)NC(=O)CN(C)C(=O)[C@@H]1Cc1ccc(C(F)(F)F)cc1 [PP0767] ([NMeL]I[Sar][Sar][NPrPhe(4-CF3)][Sar][hPhe(3,5-F2-4-CF3)]P[Ac5c][NMeAbu(4,4,4-F3)][NMeD]-Morpholide; lactam N-11)
[1]; KD ratio HRAS/KRAS
  HRAS/KRAS (ratio of KD value with respect to GDP-bound HRAS wild-type protein to KD value with respect to KRAS): C (A compound having a KD ratio of 0.1 or more and less than 3 is denoted as C)
[2]; KD ratio NRAS/KRAS
  NRAS/KRAS (ratio of KD value with respect to GDP-bound NRAS wild-type protein to KD value with respect to KRAS): B (a compound having 3 or more and less than 10 is denoted as B)

## CCO[C@@H]1C[C@H]2C(=O)NC3(CCCC3)C(=O)N(C)[C@@H](C3CCCC3)C(=O)N(C)[C@H](C(=O)N(C)C)CC(=O)N(C)[C@@H](CC(C)C)C(=O)N[C@@H]([C@@H](C)CC)C(=O)N(C)CC(=O)N(C)[C@H]3C/C=C\CCN(C3=O)[C@@H](Cc3ccc(C)cc3)C(=O)N(C)CC(=O)N[C@@H](CCc3ccc(C(F)(F)F)c(OC)c3)C(=O)N2C1 [PP2197]
[1]; [5]
  HRAS/KRAS (ratio of KD value with respect to HRAS to KD value with respect to KRAS): B (a compound having 3 or more and less than 10 is denoted as B)
[2]; [6]
  NRAS/KRAS (ratio of KD value with respect to NRAS to KD value with respect to KRAS): A (a compound having 10 or more and less than 20 is denoted as A)

## CCC[C@H]1C(=O)N[C@@H]([C@@H](C)CC)C(=O)N(C)[C@@H](C)C(=O)N2CC[C@H]2C(=O)N(CCC)[C@@H](Cc2ccc(C(F)(F)F)cc2)C(=O)N(C)CC(=O)N[C@@H](CCc2ccc(C(F)(F)F)c(Cl)c2)C(=O)N2CC(F)(F)C[C@H]2C(=O)NC2(CCCC2)C(=O)N(C)[C@@H](C2CCCC2)C(=O)N(C)[C@H](C(=O)N2CCOCC2)CC(=O)N1C [PP0205] ([NMeNva]I[NMeA][Aze][NPrPhe(4-CF3)][Sar][hPhe(3-Cl-4-CF3)][Pro(4,4-F2)][Ac5c][NMeGly(cPent)][NMeD]-Morpholide; lactam N-11)
[1]; KD ratio HRAS/KRAS
  HRAS/KRAS (ratio of KD for GDP-bound HRAS wild-type to KD for KRAS): C (A compound having a KD ratio of 0.1 or more and less than 3 is denoted as C)
[2]; KD ratio NRAS/KRAS
  NRAS/KRAS (ratio of KD for GDP-bound NRAS wild-type to KD for KRAS): C (A compound having a KD ratio of 0.1 or more and less than 3 is denoted as C)
